Measurements from publication PMC11842024, “Reversible male contraception by targeted inhibition of serine/threonine kinase 33” (Science (New York, N.Y.), 2024).

Assays:
STK33 [1] = molecular target: T1, STK33 (Homo sapiens, UniProt Q9BYT3); experiment: NanoBRET target engagement intracellular kinase assay; assay type: cell-based; design: host or cells: HEK293 (HEK293T cultured); details: for IC50: HEK293 cells, 2 hours incubation
Experimental: (§1) NanoBRET Target Engagement intracellular kinase assay. HEK293T cells were cultured in […]
(§2) The cell line underwent authentication by short tandem repeat (STR) profiling at Cytogenetics and Cell Authentication Core (CCAC) at MD Anderson Cancer Center. NanoBRET Target Engagement intracellular kinase assay, K-10 assay (Cat. # N2641), K-9 assay (Cat. # N2631), transfection reagent FuGENE HD (Cat. # E2311), transfection carrier DNA (Cat. # E4881), NanoLuc-STK33 fusion vector (Cat. # NV2111), NanoLuc-RET fusion vector (Cat. # NV1951), NanoLuc-CLK1 fusion vector (Cat. # NV1131), NanoLuc-CLK2 fusion vector (Cat. # NV1141), and NanoLuc-CLK4 fusion vector (Cat. # NV1151) were purchased from Promega. The measurement of test compound engagement with cellular target protein was performed in a 384-well format according to manufacturer’s instructions. HEK293 cells were transiently transfected with NanoLuc (STK33, RET, CLK1, CLK2, and CLK4) fusion vectors. After 36 hours of transfection, cells were treated with a fixed concentration of tracer (recommended by Promega) followed by compounds (inhibitors) for 2 hours of incubation. To determine the test compound […]
(§3) 0.4 nM at a fixed tracer concentration. Staurosporine was measured in parallel as a positive control.
(§4) Freshly prepared NanoBRET Nano-Glo substrate plus extracellular NanoLuc inhibitor was then added to initiate the subsequent bioluminescence resonance energy transfer (BRET) measurements using a CLARIOstar Plus BMG LABTECH plate reader. Data analysis was done by measuring the ratio of acceptor emission to donor emission (BRET ratio) and normalized by subtracting no-tracer-control-background. IC50 values were obtained by nonlinear regression using a four-parameter equation in GraphPad Prism 7 (San Diego, CA).

STK33 [2] = molecular target: T1, STK33; experiment: LanthaScreen binding assay (ThermoFisher SelectScreen); design: purchased SelectScreen Services (ThermoFisher)
Description: (§5) In vitro biochemical assays. Several small molecule assays were outsourced to SelectScreen Services (ThermoFisher) for STK33 and for off-target kinases (data sets are available on demand).
(§6) These assays are LanthaScreen (binding assay) and Z’-LYTE (activity assay). Dose-responses were done with at least 5 different concentrations in duplicates, and parameters were optimized by calculations described below and provided with standard errors.
(§7) Calculation of Kd values for kinase inhibitors that bind to the ATP pocket of a kinase from LanthaScreen binding data. DynaFit (71) was used to fit complex equilibria where a tracer is displaced by a dilution series of a kinase inhibitor. This method relies on the concentration of inhibitor, as well as the concentration of kinase and tracer, and Kd of the tracer. The latter three parameters are tabulated by ThermoFisher for each kinase in the LanthaScreen assay panel. […]
Since Kd and Ki values are defined the same way, in other words, Kd = [E] [I] / [EI] = Ki, Kd and Ki values can be compared. […]

[3] = Metabolic stability assay in liver microsomes (HLM); assay type: in vitro ADME, human; details: 2.0 µM, 0.5 mg protein/mL, NADPH, data >60 min is an extrapolated estimate; for half-life at 2 µM: human, liver microsomes, read-out: Metabolic stability HLM, t1/2
Experimental: (§8) Metabolic stability assay in liver microsomes. The stabilities of CDD-2110, CDD-2211, CDD-2212, CDD-2807, and CDD-3348 in liver microsomes with/without Uridine Diphosphate Glucuronic Acid (UDP-GA, a cofactor of UDP-glucuronosyltransferases) were performed and half-life was calculated as previously reported (36). Briefly, each CDD compound (2.0 μM) was incubated in the mouse or human liver microsomes (0.5 mg protein/mL) at 37°C in 1× PBS fortified with NADPH (1.0 mM) and with/without UDP-GA (2.5 mM). Alamethicin (25 µg/mL) as a pore forming agent was used for the glucuronidation (Table S2A). The samples were collected at specific time-points 0, 30, and 60 min in duplicate. The reactions were terminated by adding equivalent volume of ice-cold methanol (CH3OH) and vortexed. After centrifugation at 15000 g for 10 min, 3.0 μL of the supernatant was analyzed by Thermo TSQ Quantis MS coupled with a Thermo Vanquish UHPLC (San Jose, CA) equipped with a Luna C18 column (1 mm × 50 mm, 1.6 µm, Phenomenex, Torrance, CA). The column temperature was maintained at 40°C. CDD-2807 was monitored under the selected reaction monitoring (SRM) mode coupled with a positive electrospray ionization (ESI) source. The SRM ion pairs were 447→321 for CDD-2807.

CLK4 [4] = molecular target: T2, CLK4 (Homo sapiens, UniProt Q9HAZ1); experiment: NanoBRET target engagement intracellular kinase assay; assay type: cell-based; design: host or cells: HEK293 (HEK293T cultured); details: for IC50: HEK293 cells, 2 hours incubation; for Fold NanoBRET IC50 CLK4 over STK33 (in parentheses): selectivity vs STK33
T2 sequence (Q9HAZ1 whole entry): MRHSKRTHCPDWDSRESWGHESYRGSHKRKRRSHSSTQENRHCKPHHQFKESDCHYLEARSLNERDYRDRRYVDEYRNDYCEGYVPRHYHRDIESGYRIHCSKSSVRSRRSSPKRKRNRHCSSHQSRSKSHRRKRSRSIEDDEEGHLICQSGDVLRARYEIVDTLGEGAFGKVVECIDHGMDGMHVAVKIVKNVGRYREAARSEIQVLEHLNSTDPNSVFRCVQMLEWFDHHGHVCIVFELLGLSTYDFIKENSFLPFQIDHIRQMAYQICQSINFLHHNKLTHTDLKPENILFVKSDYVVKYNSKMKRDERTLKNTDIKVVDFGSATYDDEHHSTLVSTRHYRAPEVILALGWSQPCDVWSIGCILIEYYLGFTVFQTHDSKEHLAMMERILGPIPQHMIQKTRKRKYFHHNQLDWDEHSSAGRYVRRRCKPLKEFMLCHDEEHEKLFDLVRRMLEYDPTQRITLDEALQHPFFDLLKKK
Experimental: as §1, §2, §3, §4

CLK1 [5] = molecular target: T3, CLK1 (Homo sapiens, UniProt P49759); experiment: as above; assay type: cell-based; design: host or cells: HEK293 (HEK293T cultured); details: for IC50: HEK293 cells, 2 hours incubation; for Fold NanoBRET IC50 CLK1 over STK33 (in parentheses): selectivity vs STK33
T3 sequence (P49759 whole entry): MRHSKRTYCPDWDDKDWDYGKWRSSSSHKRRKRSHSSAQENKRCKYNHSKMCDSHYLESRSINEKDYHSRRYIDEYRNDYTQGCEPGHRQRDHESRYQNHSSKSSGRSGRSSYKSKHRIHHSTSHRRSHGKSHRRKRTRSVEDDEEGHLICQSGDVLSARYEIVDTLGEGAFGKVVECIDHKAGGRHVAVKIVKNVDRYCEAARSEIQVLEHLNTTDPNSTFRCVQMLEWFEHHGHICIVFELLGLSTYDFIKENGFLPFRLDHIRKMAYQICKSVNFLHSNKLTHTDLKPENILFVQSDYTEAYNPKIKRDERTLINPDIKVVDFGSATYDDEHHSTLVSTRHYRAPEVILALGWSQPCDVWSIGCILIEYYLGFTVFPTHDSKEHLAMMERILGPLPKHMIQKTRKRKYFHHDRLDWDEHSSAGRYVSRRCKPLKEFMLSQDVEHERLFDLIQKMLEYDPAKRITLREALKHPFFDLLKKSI
Experimental: as §1, §2, §3, §4

RET [6] = molecular target: T4, RET (Homo sapiens, UniProt P07949); experiment: as above; assay type: cell-based; design: host or cells: HEK293 (HEK293T cultured); details: for IC50: HEK293 cells, 2 hours incubation; for Fold NanoBRET IC50 RET over STK33 (in parentheses): selectivity vs STK33
T4 sequence (P07949 29-1114): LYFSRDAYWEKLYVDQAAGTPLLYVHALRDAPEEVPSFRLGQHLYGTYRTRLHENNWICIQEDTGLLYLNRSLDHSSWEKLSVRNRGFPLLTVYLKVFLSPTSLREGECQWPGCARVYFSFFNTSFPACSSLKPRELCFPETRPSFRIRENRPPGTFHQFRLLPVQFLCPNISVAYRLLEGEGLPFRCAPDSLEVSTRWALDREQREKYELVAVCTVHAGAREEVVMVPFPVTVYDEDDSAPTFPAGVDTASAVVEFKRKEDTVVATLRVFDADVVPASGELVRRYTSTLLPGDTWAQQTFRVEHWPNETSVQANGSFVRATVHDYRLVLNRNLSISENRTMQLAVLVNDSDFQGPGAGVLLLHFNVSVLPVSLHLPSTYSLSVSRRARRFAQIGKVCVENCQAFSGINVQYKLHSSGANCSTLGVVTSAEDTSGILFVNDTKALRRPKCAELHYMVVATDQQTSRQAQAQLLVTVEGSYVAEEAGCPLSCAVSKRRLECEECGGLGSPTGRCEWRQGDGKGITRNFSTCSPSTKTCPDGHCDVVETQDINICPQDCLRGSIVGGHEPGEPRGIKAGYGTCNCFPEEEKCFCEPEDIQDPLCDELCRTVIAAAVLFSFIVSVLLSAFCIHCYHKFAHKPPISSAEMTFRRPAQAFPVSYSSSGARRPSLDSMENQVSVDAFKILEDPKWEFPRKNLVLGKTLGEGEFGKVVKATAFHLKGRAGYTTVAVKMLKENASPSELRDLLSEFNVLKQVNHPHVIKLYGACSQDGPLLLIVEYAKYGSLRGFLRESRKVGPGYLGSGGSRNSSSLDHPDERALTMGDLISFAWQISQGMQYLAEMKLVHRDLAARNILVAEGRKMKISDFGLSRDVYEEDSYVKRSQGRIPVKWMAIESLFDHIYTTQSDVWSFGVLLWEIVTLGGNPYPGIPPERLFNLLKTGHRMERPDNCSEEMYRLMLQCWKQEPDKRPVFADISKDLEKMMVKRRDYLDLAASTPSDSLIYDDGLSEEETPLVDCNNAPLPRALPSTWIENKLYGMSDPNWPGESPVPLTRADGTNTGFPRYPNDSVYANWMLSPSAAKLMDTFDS
Experimental: as §1, §2, §3, §4

CLK2 [7] = molecular target: T5, CLK2 (Homo sapiens, UniProt P49760); experiment: as above; assay type: cell-based; design: host or cells: HEK293 (HEK293T cultured); details: for IC50: HEK293 cells, 2 hours incubation; for Fold NanoBRET IC50 CLK2 over STK33 (in parentheses): selectivity vs STK33
T5 sequence (P49760 whole entry): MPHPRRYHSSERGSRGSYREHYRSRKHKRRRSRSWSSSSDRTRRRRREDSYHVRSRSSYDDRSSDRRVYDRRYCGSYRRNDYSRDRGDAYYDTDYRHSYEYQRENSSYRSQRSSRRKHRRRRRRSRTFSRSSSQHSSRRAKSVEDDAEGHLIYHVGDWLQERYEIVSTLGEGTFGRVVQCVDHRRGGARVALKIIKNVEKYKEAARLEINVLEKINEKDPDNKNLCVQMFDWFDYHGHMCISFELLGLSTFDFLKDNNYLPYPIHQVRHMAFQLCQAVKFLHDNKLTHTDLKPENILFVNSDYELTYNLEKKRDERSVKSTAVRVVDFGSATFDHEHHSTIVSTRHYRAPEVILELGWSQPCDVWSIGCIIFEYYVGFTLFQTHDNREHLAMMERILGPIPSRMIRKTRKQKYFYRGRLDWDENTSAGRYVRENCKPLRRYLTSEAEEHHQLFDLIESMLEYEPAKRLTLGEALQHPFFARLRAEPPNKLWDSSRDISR
Experimental: as §1, §2, §3, §4

[8] = Metabolic stability assay in liver microsomes (MLM); assay type: in vitro ADME, mouse; details: 2.0 µM, 0.5 mg protein/mL, NADPH, data >60 min is an extrapolated estimate; for half-life at 2 µM: mouse, liver microsomes, read-out: Metabolic stability MLM, t1/2
Experimental: as §8

CLK4 [9] = molecular target: T2, CLK4; experiment: LanthaScreen binding assay (ThermoFisher SelectScreen); design: purchased SelectScreen Services (ThermoFisher)
Description: as §5, §6, §7

CLK1 [10] = molecular target: T3, CLK1; experiment: Z'-LYTE activity assay (ThermoFisher SelectScreen); assay type: biochemical; design: purchased SelectScreen Services (ThermoFisher); details: [ATP] = Kmapp
Description: as §5
(§9) These assays are LanthaScreen (binding assay) and Z’-LYTE (activity assay). Dose-responses were done with at least 5 different concentrations in duplicates, and parameters were optimized by calculations described below and provided with standard errors. […]
(§10) Calculation of Ki values for kinase inhibitors from Z’-LYTE inhibition data. The Morrison equation with [ATP] = Kmapp for competitive inhibition (GraphPad Prism 7, San Diego, CA) was used to get Ki values. Since Kd and Ki values are defined the same way, in other words, Kd = [E] [I] / [EI] = Ki, Kd and Ki values can be compared. […]

RET [11] = molecular target: T4, RET; experiment: Z'-LYTE activity assay (ThermoFisher SelectScreen); assay type: biochemical; design: purchased SelectScreen Services (ThermoFisher); details: [ATP] = Kmapp
Description: as §5, §9, §10

CLK2 [12] = molecular target: T5, CLK2; experiment: Z'-LYTE activity assay (ThermoFisher SelectScreen); assay type: biochemical; design: purchased SelectScreen Services (ThermoFisher); details: [ATP] = Kmapp
Description: as §5, §9, §10

T1 sequence (Q9BYT3 whole entry): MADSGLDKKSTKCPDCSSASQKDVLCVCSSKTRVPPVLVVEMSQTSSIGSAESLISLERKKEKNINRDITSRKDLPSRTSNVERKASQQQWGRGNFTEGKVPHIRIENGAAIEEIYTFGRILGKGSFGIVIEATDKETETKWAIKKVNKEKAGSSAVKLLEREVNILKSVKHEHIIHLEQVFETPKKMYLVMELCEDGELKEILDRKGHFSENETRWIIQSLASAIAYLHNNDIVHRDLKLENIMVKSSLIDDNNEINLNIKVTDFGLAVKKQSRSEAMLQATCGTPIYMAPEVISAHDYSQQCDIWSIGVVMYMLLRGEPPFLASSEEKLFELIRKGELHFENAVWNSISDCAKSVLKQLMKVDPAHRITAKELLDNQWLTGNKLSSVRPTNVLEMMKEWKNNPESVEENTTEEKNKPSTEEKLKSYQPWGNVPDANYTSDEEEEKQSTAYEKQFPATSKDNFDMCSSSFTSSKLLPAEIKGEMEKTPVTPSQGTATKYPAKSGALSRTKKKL

Compound: O=C(c1ccc2[nH]nc(C#Cc3ccccc3-c3ccccc3)c2c1)N1CCC2(CCNCC2)C1 [Compound S5]
- IC50 (STK33 [1]): 1290 nM

Compound: O=C(c1ccc2[nH]nc(C#Cc3ccccc3-c3ccccc3)c2c1)N1CC2(CCCCN2)C1 [Compound S6]
- IC50 (STK33 [1]): 236 nM

Compound: CNC(=O)CCC1CCN(C(=O)C2CCN(C3CCN(C(=O)c4ccc5[nH]nc(C#Cc6ccccc6-c6ccccc6)c5c4)C3)CC2)CC1 (stereo not drawn) [CDD-3348]
- Kd (STK33 [2]): 0.06 nM
- half-life at 2 µM [3]: 13 min
- IC50 (CLK4 [4]): 3850 nM
- Fold NanoBRET IC50 CLK4 over STK33 (in parentheses) (CLK4 [4]): 23 X
- IC50 (CLK1 [5]): 6730 nM
- Fold NanoBRET IC50 CLK1 over STK33 (in parentheses) (CLK1 [5]): 40 X
- IC50 (RET [6]): 6410 nM
- Fold NanoBRET IC50 RET over STK33 (in parentheses) (RET [6]): 38 X
- selectivity toward STK33 compared to CLK1, CLK2, CLK4, and RET (STK33 [1]): > 10 fold
- IC50 (STK33 [1]): 169 nM
- IC50 (CLK2 [7]): 2530 nM
- Fold NanoBRET IC50 CLK2 over STK33 (in parentheses) (CLK2 [7]): 15 X
- half-life at 2 µM [8]: 14 min
- Kd (CLK4 [9]): 26.2 ± 1.5 nM
- Ki (CLK1 [10]): 477 ± 34 nM
- Ki (RET [11]): 5.6 ± 0.5 nM
- Ki (CLK2 [12]): 58.3 ± 3.3 nM

Compound: CNC(=O)C1CCN(C2CCN(C(=O)c3ccc4[nH]nc(C#Cc5ccccc5-c5ccccc5)c4c3)C2)CC1 (stereo not drawn) [CDD-2110]
- Kd (STK33 [2]): 0.1 nM
- fold more potent than published STK33 inhibitors in biochemical assays (STK33 [2]; vs compound 1, ML281, BRD8899): 12- to 400 fold
- half-life at 2 µM [3]: 10 min
- IC50 (CLK4 [4]): 544 nM
- Fold NanoBRET IC50 CLK4 over STK33 (in parentheses) (CLK4 [4]): 14 X
- IC50 (CLK1 [5]): 1210 nM
- Fold NanoBRET IC50 CLK1 over STK33 (in parentheses) (CLK1 [5]): 32 X
- IC50 (RET [6]): 746 nM
- Fold NanoBRET IC50 RET over STK33 (in parentheses) (RET [6]): 20 X
- selectivity toward STK33 compared to CLK1, CLK2, CLK4, and RET (STK33 [1]): > 10 fold
- IC50 (STK33 [1]): 38 nM
- fold more potent than published STK33 inhibitors in cellular assays (STK33 [1]; vs compound 1, ML281, BRD8899): 20- to 310 fold
- IC50 (CLK2 [7]): 917 nM
- Fold NanoBRET IC50 CLK2 over STK33 (in parentheses) (CLK2 [7]): 24 X
- half-life at 2 µM [8]: 25 min
- Kd (CLK4 [9]): 9.6 ± 1.2 nM
- Ki (CLK1 [10]): 234 ± 18 nM
- Ki (RET [11]): 3.1 ± 0.3 nM
- Ki (CLK2 [12]): 27 ± 6.6 nM

Compound: O=C(c1ccc2[nH]nc(C#Cc3ccccc3-c3ccccc3)c2c1)N1CCC2(CCCCN2)C1 (stereo not drawn) [Compound S3]
- IC50 (STK33 [1]): 52 nM

Compound: O=C(c1ccc2[nH]nc(C#Cc3ccccc3-c3ccccc3)c2c1)N1CCC2(CCCNC2)C1 (stereo not drawn) [Compound S4]
- IC50 (STK33 [1]): 517 nM

Compound: CN(C)C1CCN(C(=O)c2ccc3[nH]nc(C#Cc4ccc(-c5ccccc5)cc4)c3c2)C1 (stereo not drawn) [Compound S10]
- Kd (STK33 [2]): 17.7 ± 0.7 nM
- IC50 (STK33 [1]): 8710 nM

Compound: ML281 [reference compound]
- Kd (CLK4 [9]): > 1000 nM
- Ki (CLK1 [10]): > 1000 nM
- Ki (RET [11]): > 1000 nM
- Ki (CLK2 [12]): > 1000 nM

Compound: NC1CCN(C(=O)c2ccc3[nH]nc(C#Cc4ccccc4-c4ccccc4)c3c2)C1 (stereo not drawn) [Compound S1]
- Metabolic stability HLM, t1/2 [3]: 277 min
- IC50 (STK33 [1]): 46 nM
- Metabolic stability MLM, t1/2 [8]: 42 min

Compound: CN(C)[C@@H]1CCN(C(=O)c2ccc3[nH]nc(C#Cc4ccccc4-c4ccccc4)c3c2)C1 [CDD-2211]
- Kd (STK33 [2]): 0.018 nM
- half-life at 2 µM [3]: 10 min
- IC50 (CLK4 [4]): 187 nM
- Fold NanoBRET IC50 CLK4 over STK33 (in parentheses) (CLK4 [4]): 37 X
- IC50 (CLK1 [5]): 115 nM
- Fold NanoBRET IC50 CLK1 over STK33 (in parentheses) (CLK1 [5]): 23 X
- IC50 (RET [6]): 78 nM
- Fold NanoBRET IC50 RET over STK33 (in parentheses) (RET [6]): 16 X
- selectivity toward STK33 compared to CLK1, CLK2, CLK4, and RET (STK33 [1]): > 10 fold
- IC50 (STK33 [1]): 5 nM
- IC50 (CLK2 [7]): 48 nM
- Fold NanoBRET IC50 CLK2 over STK33 (in parentheses) (CLK2 [7]): 10 X
- half-life at 2 µM [8]: 7 min
- Kd (CLK4 [9]): 2.5 ± 0.2 nM
- Ki (CLK1 [10]): 38.8 ± 5.5 nM
- Ki (RET [11]): 0.47 ± 0.05 nM
- Ki (CLK2 [12]): 5.4 ± 0.4 nM

Compound: O=C(c1ccc2[nH]nc(C#Cc3ccccc3-c3ccccc3)c2c1)N1CC2(CCNCC2)C1 [Compound S7]
- Metabolic stability HLM, t1/2 [3]: 235 min
- IC50 (STK33 [1]): 168 nM
- Metabolic stability MLM, t1/2 [8]: 46 min

Compound: CN(C)C1CCN(C(=O)c2ccc3[nH]nc(C#Cc4cccc(-c5ccccc5)c4)c3c2)C1 (stereo not drawn) [Compound S9]
- Kd (STK33 [2]): 9.9 ± 2.3 nM
- IC50 (STK33 [1]): 289 nM

Compound: O=C(c1ccc2[nH]nc(C#Cc3ccccc3-c3ccccc3)c2c1)N1CCC(O)C1 (stereo not drawn) [Compound S2]
- IC50 (STK33 [1]): 647 nM
